Source: article PMC9508196 (Scientific Reports, 2022)
≈ marks a conversion by molar mass, not a printed value. No end group written: not given here.

Assays:
[1] = tested on: A. baumannii ATCC 19,606; assay: microbe, parasite or virus in culture; type: cell-based, Acinetobacter baumannii; settings: A. baumannii ATCC 19,606; broth microdilution (modified CLSI), MHB, 2–8 × 10^5 CFU/mL, 24 h, 37 °C, triplicate
Text: (§1) Ten strains of both Gram-positive and -negative bacteria, including Staphylococcus aureus ATCC 25,923, S. epidermidis ATCC 12,228, Bacillus cereus ATCC 11,778, Listeria monocytogenes 10403S, Salmonella typhimurium ATCC 13,311, Pseudomonas aeruginosa ATCC 27,853, Shigella sonnei ATCC 11,060, A. baumannii ATCC 19,606, Escherichia coli ATCC 25,922 and E. coli O157:H7, were used in this study. Eight clinical isolates of multidrug-resistant (MDR) and extensively drug-resistant (XDR) A. baumannii, isolated from human (blood, sputum, respiratory sample, sterile site sample and urine), were kindly provided by Asst. Prof. Dr. Sakawrat Kanthawong (Faculty of Medicine, Khon Kaen University, Thailand) (Table S1). All bacterial strains, excluding L. monocytogenes 10403S and E. coli, were cultured in tryptic soy broth (TSB). L. monocytogenes was grown in TSB supplemented with 0.6% yeast extract (TSB-YE), and E. coli was cultured in Luria broth (LB). All of bacteria were cultured at 37 °C with continuous shaking at 220 rpm.
(§2) Minimum inhibitory concentration (MIC) of peptides and antibiotics was assessed by a modified version of the broth microdilution method from the Clinical and Laboratory Standards Institute (CLSI) as previously described. In brief, mid-log phase growths of microbial strains were cultured in Müeller-Hinton broth (MHB) with an initial inoculum of 2–8 × 10^5 CFU/mL. Bacteria suspensions were incubated in sterile 96-well plates with test agents at desired concentrations. […] Minimum bactericidal concentration (MBC) determination was performed using a modified version of the colony count assay. In brief, fifty µl of all non-turbid wells from MIC experiments were spread on agar plates. The MBC value was defined as the lowest concentration of peptides with no colony growth on the plate. All assays were performed in triplicate.

[2] = tested on: Bacillus cereus ATCC 11,778; type: cell-based; settings: B. cereus ATCC 11,778; broth microdilution, MHB, 24 h, 37 °C, triplicate
Text: as §1, §2

[3] = tested on: Escherichia coli O157:H7 MT strain; type: cell-based; settings: E. coli O157:H7 MT strain; broth microdilution, MHB, 24 h, 37 °C, triplicate
Text: as §1, §2

[4] = tested on: Listeria monocytogenes 10403S; type: cell-based; settings: L. monocytogenes 10403S; broth microdilution, MHB, 24 h, 37 °C, triplicate
Text: as §1, §2

[5] = tested on: Pseudomonas aeruginosa ATCC 27,853; type: cell-based; settings: P. aeruginosa ATCC 27,853; broth microdilution, MHB, 24 h, 37 °C, triplicate
Text: as §1, §2

[6] = tested on: Salmonella Typhimurium ATCC 13,311; type: cell-based; settings: S. Typhimurium ATCC 13,311; broth microdilution, MHB, 24 h, 37 °C, triplicate
Text: as §1, §2

[7] = tested on: Shigella sonnei ATCC 11,060; type: cell-based; settings: S. sonnei ATCC 11,060; broth microdilution, MHB, 24 h, 37 °C, triplicate
Text: as §1, §2

[8] = tested on: Staphylococcus epidermidis ATCC 12,228; type: cell-based; settings: S. epidermidis ATCC 12,228; broth microdilution, MHB, 24 h, 37 °C, triplicate
Text: as §1, §2

[9] = tested on: mouse fibroblast (L929) cells; assay: In vitro cytotoxicity assay (MTT); type: cell-based; settings: 24 h, peptide 62.5 µg/mL
Experimental: The colorimetric 3-(4,5 dimethylthiazol-2-yl)-2,5-diphenyltetrazolium bromide (MTT; Invitrogen) dye reduction assay was used to determine the cytotoxicity of peptides on mouse fibroblast (L929) cells (NCTC clone 929) according to a modified MTT assay. L929 cells were cultured in Dulbecco’s Modified Eagle Medium (DMEM; Gibco) containing 10% fetal bovine serum (FBS; Gibco) and 100 U/ml penicillin–streptomycin in a fully humidified atmosphere of 95% air and 5% CO2 at 37 °C. The cells (10^5 cells/well) were seeded on 96-well plates and incubated with serially diluted peptide (0.98 to 250 μg/ml) for 24 h. At the end of incubation period, MTT solution (100 µl, 0.4 mg/ml) was added to each well and incubated for 4 h. The supernatants were removed and replaced by 100 µl of DMSO to dissolve the purple formazan crystals. Absorbance was measured using a MultiskanTM FC microplate reader at a wavelength of 570 nm. Cells without peptides served as negative controls. Cell viability (percentage) was calculated using the following equation: %Cell viability=OD570of treated sample-ODBlank/OD570of control-ODBlank×100%

[10] = tested on: Escherichia coli ATCC 25,922; type: cell-based; settings: E. coli ATCC 25,922; broth microdilution, MHB, 24 h, 37 °C, triplicate
Text: as §1, §2

[11] = tested on: Staphylococcus aureus ATCC 25,923; type: cell-based; settings: S. aureus ATCC 25,923; broth microdilution, MHB, 24 h, 37 °C, triplicate
Text: as §1, §2

[12] = tested on: human red blood cells (hRBCs); assay: Hemolysis assay; type: cell-based; settings: peptide concentration that caused 10% hemolysis; 2% (v/v) hRBCs in PBS pH 7.4, 0.98 to 250 μg/ml, 1 h, 37 °C, OD 405 nm, triplicate
Experimental: The hemolytic activity of peptides was determined as the amount of hemoglobin released from lysed human red blood cells (hRBCs) after treatment with peptide. Fresh hRBCs were collected from a healthy volunteer in polycarbonate tubes containing heparin. Then, the collected packed RBCs were washed at least three times (or until the supernatant was clear) with sterile phosphate-buffered saline pH 7.4 (PBS) and centrifuged at 2,000 × g for 5 min. The 2% (v/v) of washed hRBCs in PBS were incubated with serially diluted peptides (0.98 to 250 μg/ml) for 1 h at 37 °C. After centrifugation, the supernatants were monitored for optical density (OD) at 405 nm using a Multiskan FC Microplate Reader[21]. Values for 0% (negative control) and 100% (positive control) lysis were determined by incubating the hRBCs with PBS only (ODBlank) and 0.1% (v/v) Triton X-100 (ODTriton X-100), respectively. The experiments were performed in triplicate. The percent hemolysis was calculated according to the following equation: %Hemolysis=ODSample-ODBlank/ODTriton X-100-ODBlank×100

Question: How did the MIC [1] turn out when `CC[C@H](C)[C@H](NC(=O)CN)C(=O)NCC(=O)N[C@@H](C)C(=O)N[C@H](C(=O)N[C@@H](CC(C)C)C(=O)N[C@@H](CCCCN)C(=O)N[C@H](C(=O)N[C@@H](CC(C)C)C(=O)N[C@H](C(=O)N[C@H](C(=O)NCC(=O)N[C@@H](CC(C)C)C(=O)N1CCC[C@H]1C(=O)N[C@@H](C)C(=O)N[C@@H](CC(C)C)C(=O)N[C@H](C(=O)N[C@@H](CO)C(=O)N[C@@H](Cc1c[nH]c2ccccc12)C(=O)N[C@H](C(=O)N[C@@H](CCCCN)C(=O)N[C@@H](CCCNC(=N)N)C(=O)N[C@@H](CCCCN)C(=O)N[C@@H](CCCNC(=N)N)C(=O)N[C@@H](CCC(N)=O)C(=O)N[C@@H](CCC(N)=O)C(N)=O)[C@@H](C)CC)[C@@H](C)CC)[C@@H](C)O)[C@@H](C)O)C(C)C)C(C)C` [Melittin, reference compound] was run?
Answer: 3.91 µg/mL (≈ 1.37 µM)

Question: And the MIC [2]?
Answer: 7.81 µg/mL (≈ 2.74 µM)

Question: And the MIC [3]?
Answer: 7.81 µg/mL (≈ 2.74 µM)

Question: And the MIC [4]?
Answer: 3.91 µg/mL (≈ 1.37 µM)

Question: And the MIC [5]?
Answer: 7.81 µg/mL (≈ 2.74 µM)

Question: And the MIC [6]?
Answer: 3.91 µg/mL (≈ 1.37 µM)

Question: And the MIC [7]?
Answer: 3.91 µg/mL (≈ 1.37 µM)

Question: And the MIC [8]?
Answer: 3.91 µg/mL (≈ 1.37 µM)

Question: And the cell viability [9]?
Answer: less than 5%

Question: With RLFRRVKKVAGKIAKRIWKILRR-NH2 [A3P7] as the compound, how does the MIC [1] read?
Answer: 7.81 µg/mL

Question: What about the MIC [2] of the same compound?
Answer: 7.81 µg/mL

Question: What about the MIC [10] of the same compound?
Answer: 7.81 µg/mL

Question: What about the MIC [3] of the same compound?
Answer: 15.63 µg/mL

Question: And the MIC [4]?
Answer: 3.91 µg/mL

Question: What about the MIC [5] of the same compound?
Answer: 7.81 µg/mL

Question: What about the MIC [6] of the same compound?
Answer: 7.81 µg/mL

Question: What about the MIC [7] of the same compound?
Answer: 7.81 µg/mL

Question: And the MIC [11]?
Answer: 7.81 µg/mL

Question: What about the MIC [8] of the same compound?
Answer: 7.81 µg/mL

Question: What about the “MHC, minimum hemolytic concentration” value [12] of the same compound?
Answer: 1.95 µg/mL
